The record followed here is patent US4775691A, “4H-benzo[4,5]cyclohepta[1,2-b]thiophene derivatives” (Sandoz Ltd., priority 1985, dated 1988).

Read-outs that look alike come from different tables or passages of the source.

In experiment [1] the test system is arthritis pain in the rat. Put plainly: Arthritis pain test in the rat (Test C), analgesic activity. It counts as in vivo, rat (OFA). To be noted: for ED50: read-out: ED50, Test C. As for the experimental part: For this test male rats (OFA) of 110-120 g are treated with 0.1 ml of a Myobacterium smegmatis suspension in paraffin oil (0.6 mg Mycobact./0.1 ml oil) injected i.c. into the tail root. Market arthritis in the hind-paws develops ca. 12 days after treatment. 30 mins. before administration of test-substance, control measurement is performed by flexing the foot joint of the right or left hind-paw using a Statham transducer until volcalisation occurs. […] Test substance is administered orally and the flexion procedure repeated 1, 3 and 5 hours subsequently. The pressure at which vocalisation occurs is noted, the value recorded for each rat at each interval being the average value of three successive measurements. Animals in which the vocalisation threshold is doubled with respect to the control measurement are considered to be protected. The ED50 estimated for each post-treatment time according to the Probit method is taken as the dosage at which 50% of animals are protected. Active agents of the invention are active in this test at dosages of from 3.2 to 100 mg/kg.

Experiment [2] relates to established adjuvant arthritis in the rat. Put plainly: Adjuvant arthritis test in the rat (Test A), anti-inflammatory activity. It is filed as in vivo. To be noted: for ED50: read-out: ED50, Test A. An excerpt:
For this test, adjuvant arthritis is induced according to the method of Pearson and Wood, "Arthr.

Experiment [3] deals with LPS (E. coli) induced fever in the rat. Put plainly: LPS (E. coli) induced fever test in the rat (Test B), anti-pyretic activity. It counts as in vivo, rat (Sprague-Dawley). To be noted: for ED50: Escherichia coli, 2 h, read-out: ED50, Test B. The protocol:
For this test male rats (Sprague-Dawley) of 130-180 g are fasted overnight. Body temperature is measured the following morning using a rectal probe connected to a telethermometer. […] Body temperature is measured 2 hours later and this value taken as the initial temperature. 6 hours after injection, the test animals receive an oral dosage of the test substance suspended in 0.5% tragacanth or tragacanth alone (control). Body temperature is again measured after a further 2 hours.

[4] abbreviates: fraction of commonly employed acetylsalicylic acid dosage.

The term ED50 denotes the dose that gives a 50% effect, or the effect in half of the subjects. With `CC(=O)Oc1ccccc1C(=O)O` [Compound B, acetyl-salicylic acid, reference compound], the ED50 in experiment [1] (Rattus norvegicus, po) amounted to 90 mg/kg; in experiment [2] (Rattus norvegicus) it was 240 mg/kg; in experiment [3] (po), 161 mg/kg.

On to `COC1=Cc2ccccc2/C(=C\C(=O)O)c2cc(Cl)sc21` [Compound A, [2-chloro-10-methoxy-4H-benzo[4,5]-cyclohepta[1,2-b]thiophen-4-ylidene]acetic acid (E)-isomer], for which, in experiment [1] (setting [4]), the “indicated daily dosage relative to acetylsalicylic acid, analgesic therapy” value is listed as 1/5. For the same molecule, the 50% effective dose (ED50) in experiment [1] (oral, rat, dosage at which 50% of animals are protected (vocalisation threshold doubled), post-treatment time not stated) was 18 mg/kg; in experiment [2] (established adjuvant arthritis, rat), 10 ± 2 mg/kg; in experiment [3] (oral, rat, dosage at which increase in rectal temperature is 50% of control group), 14 ± 5 mg/kg. For the same molecule, the “indicated daily dosage relative to acetylsalicylic acid, anti-inflammatory therapy” value in experiment [2] (setting [4]) is 1/24. Besides, the “indicated daily dosage relative to acetylsalicylic acid, anti-pyretic therapy” value in experiment [3] (setting [4]) is recorded as 1/10.
